Pest or weed control data for 34 compounds are collected here from patent US8686044B2, “Amide derivative, pest control agent containing the amide derivative, and use of the amide derivative” (Mitsui Chemicals Agro, Inc., priority 2008, dated 2014).

Common to all, as to assay type: in vivo
The test system of one test is Laodelphax striatellus. The experiment in a line: Pesticidal test against Laodelphax striatellus (rice seedling spray). Particulars: 144 h, concentration 100 ppm, 3-stage larvae, examined after 6 days, 25° C., read-out: pesticidal rate. As to the method:
Pesticidal Test against Laodelphax striatellus
2.5 ml of an acetone solution in which a test compound had been prepared at a predetermined concentration was sprayed on rice seedlings, air-dried, and then put into a glass tube having a diameter of 3 cm and a height of 13 cm, having water therein, and 3-stage larvae of Laodelphax striatellus were released and the tube was capped. They were left to stand in a thermostatic chamber at 25° C., and the numbers of the living pests and the dead pests were examined after 6 days. The test was carried out with ten larvae per group in two replicates.

The test system of a further test is Spodoptera litura. The experiment in a line: Pesticidal test against Spodoptera litura (cabbage leaf dip). Particulars: foliar, 144 h, 2-stage larvae, examined after 6 days, 25° C., read-out: pesticidal rate; for pest or weed control at 1 ppm: concentration 1 ppm; for pest or weed control at 10 ppm: concentration 10 ppm. As to the method: (§1) Pesticidal Test against Spodoptera litura A piece of a cabbage leaf was immersed for 30 seconds in a chemical solution in which a test compound had been prepared at a predetermined concentration, and air-dried, and then put into a 7 cm polyethylene cup having a filter paper laid on the bottom thereof, and 2-stage larvae of Spodoptera litura were released. They were left to stand in a thermostatic chamber at 25° C., and the numbers of the living pests and the dead pests were examined after 6 days. The test was carried out with five larvae per group in two replicates. Further, the following compound (A) disclosed in the pamphlet of International Publication WO 2005/073165 was used as a comparative compound.

The test system of the next test is Plutella xylostella. The test is described as follows: Pesticidal test against Plutella xylostella (cabbage leaf dip). Particulars: foliar, 144 h, 2-stage larvae, examined after 6 days, 25° C., read-out: pesticidal rate; for pest or weed control at 1 ppm: concentration 1 ppm; for pest or weed control at 10 ppm: concentration 10 ppm. As for the experimental part:
as §1, with “Plutella xylostella” for “Spodoptera litura”, “above” for “following”, “(A)” for “(A) disclosed in the pamphlet of International Publication WO 2005/073165”

Take `N#Cc1ccc(C(=O)Nc2cccc(C(=O)Nc3c(Br)cc(C(F)(C(F)(F)F)C(F)(F)F)cc3C(F)(F)C(F)(F)F)c2F)cc1` [6-5911, N-(2-bromo-6-(perfluoroethyl)-4-(perfluoropropan-2-yl)phenyl)-3-(4-cyanobenzamide)-2-fluorobenzamide]: the pest or weed control at 100 ppm in the test on Laodelphax striatellus was no less than 70%. Besides, the pest or weed control at 1 ppm in the test with Spodoptera litura and with Plutella xylostella was no less than 70% each time.

Turning to `CN(C(=O)c1ccc(C#N)cc1)c1cc(C(=O)Nc2c(Br)cc(C(F)(C(F)(F)F)C(F)(F)F)cc2C(F)(F)F)ccc1F` [7-3369], the pest or weed control at 100 ppm in the test with Laodelphax striatellus is no less than 70%. The pest or weed control at 1 ppm in the test on Spodoptera litura and in the test with Plutella xylostella was no less than 70% throughout.

For `O=C(Nc1c(I)cc(C(F)(C(F)(F)F)C(F)(F)F)cc1C(F)(F)F)c1cccc(NC(=O)c2ccccc2F)c1` [6-425], in the test on Laodelphax striatellus, the pest or weed control at 100 ppm was no less than 70%. Further, the pest or weed control at 1 ppm in the test with Spodoptera litura and in the test on Plutella xylostella was no less than 70% throughout.

On to `CN(C(=O)c1cccnc1Cl)c1cccc(C(=O)Nc2c(Br)cc(C(F)(C(F)(F)F)C(F)(F)F)cc2I)c1F` [7-5903], for which, in the test on Laodelphax striatellus, the pest or weed control at 100 ppm is no less than 70%. Besides, the pest or weed control at 1 ppm in the test on Spodoptera litura and in the test on Plutella xylostella was no less than 70% each time.

Turning to `O=C(Nc1c(Br)cc(C(F)(F)C(F)(F)F)cc1C(F)(F)F)c1cccc(NC(=O)c2cccnc2Cl)c1` [6-5914], the pest or weed control at 100 ppm in the test on Laodelphax striatellus is no less than 70%. The pest or weed control at 10 ppm in the test with Spodoptera litura and in the test with Plutella xylostella was no less than 70% throughout.

Take `CN(C(=O)c1ccc(C#N)cc1Cl)c1cccc(C(=O)Nc2c(Br)cc(C(F)(C(F)(F)F)C(F)(F)F)cc2C(F)(F)F)c1` [7-301]: the pest or weed control at 100 ppm in the test with Laodelphax striatellus is no less than 70%. The pest or weed control at 1 ppm in the test with Spodoptera litura and in the test with Plutella xylostella was no less than 70% each time.

For the compound `CN(C(=O)c1ccc(Cl)nc1)c1cccc(C(=O)Nc2c(I)cc(C(F)(C(F)(F)F)C(F)(F)F)cc2C(F)(F)F)c1` [7-467], in the test on Laodelphax striatellus, the pest or weed control at 100 ppm is no less than 70%. For the same compound, the pest or weed control at 1 ppm with Spodoptera litura and in the test on Plutella xylostella was no less than 70% in each case.

As for `CN(C(=O)c1cccc(C#N)c1)c1cccc(C(=O)Nc2c(Br)cc(C(F)(C(F)(F)F)C(F)(F)C(F)(F)F)cc2C(F)(F)F)c1F` (centres unmarked) [7-1672], the pest or weed control at 100 ppm with Laodelphax striatellus is no less than 70%. Besides, the pest or weed control at 1 ppm with Spodoptera litura and in the test with Plutella xylostella was no less than 70% throughout.

For `CN(C(=O)c1cccnc1Cl)c1cccc(C(=O)N(C)c2c(Br)cc(C(F)(C(F)(F)F)C(F)(F)F)cc2C(F)(F)F)c1` [9-306], the pest or weed control at 100 ppm with Laodelphax striatellus was no less than 70%. The pest or weed control at 1 ppm in the test on Spodoptera litura and in the test with Plutella xylostella was no less than 70% in each case.

As for `CN(C(=O)c1cccnc1)c1cccc(C(=O)Nc2c(Br)cc(C(F)(C(F)(F)F)C(F)(F)F)cc2C(F)(F)F)c1F` [7-1608], the pest or weed control at 100 ppm with Laodelphax striatellus is no less than 70%. Besides, the pest or weed control at 1 ppm with Spodoptera litura and in the test on Plutella xylostella was no less than 70% each time.

With `N#Cc1ccc(C(=O)Nc2cccc(C(=O)Nc3c(I)cc(C(F)(C(F)(F)F)C(F)(F)C(F)(F)F)cc3I)c2)cc1` (centres unmarked) [6-79, 3-(4-cyanobenzamide)-N-(2,6-diiodo-4-(perfluorobutan-2-yl)phenyl)benzamide], in the test on Laodelphax striatellus, the pest or weed control at 100 ppm is no less than 70%. The pest or weed control at 1 ppm in the test with Spodoptera litura and in the test on Plutella xylostella was no less than 70% in each case.

Take `O=C(Nc1cccc(C(=O)Nc2c(I)cc(C(F)(C(F)(F)F)C(F)(F)F)cc2C(F)(F)F)c1F)c1cccnc1Cl` [6-1766]: the pest or weed control at 100 ppm in the test on Laodelphax striatellus was no less than 70%. The pest or weed control at 1 ppm in the test with Spodoptera litura and in the test with Plutella xylostella was no less than 70% throughout.

Regarding `N#Cc1ccc(C(=O)Nc2c(Cl)cc(C(F)(C(F)(F)F)C(F)(F)F)cc2C(F)(F)F)cc1NC(=O)c1cccnc1Cl` [1-506], the pest or weed control at 10 ppm with Spodoptera litura and in the test on Plutella xylostella was no less than 70% in each case.

For `CN(C(=O)c1cccc(NC(=O)c2ccccc2)c1)c1c(Br)cc(C(F)(C(F)(F)F)C(F)(F)F)cc1C(F)(F)F` [8-268], the pest or weed control at 1 ppm in the test on Spodoptera litura and with Plutella xylostella was no less than 70% throughout.

With `CN(C(=O)c1ccccc1F)c1cccc(C(=O)Nc2c(I)cc(C(F)(C(F)(F)F)C(F)(F)C(F)(F)F)cc2I)c1` (centres unmarked) [7-72], the pest or weed control at 1 ppm in the test with Spodoptera litura and with Plutella xylostella was no less than 70% each time.

Take `CN(C(=O)c1ccccc1F)c1cccc(C(=O)Nc2c(Br)cc(C(F)(C(F)(F)F)C(F)(F)F)cc2C(F)(F)F)c1` [7-269]: the pest or weed control at 1 ppm in the test on Spodoptera litura was no less than 70%. The pest or weed control at 10 ppm with Plutella xylostella was no less than 70%.

On to `CN(C(=O)c1cccnc1Cl)c1cc(C(=O)Nc2c(Br)cc(C(F)(C(F)(F)F)C(F)(F)F)cc2C(F)(F)F)ccc1F` [7-3384], for which the pest or weed control at 1 ppm with Spodoptera litura and with Plutella xylostella was no less than 70% in each case.

`CN(C(=O)c1c(F)cccc1F)c1cccc(C(=O)Nc2c(I)cc(C(F)(C(F)(F)F)C(F)(F)C(F)(F)F)cc2I)c1` (centres unmarked) [7-80]: the pest or weed control at 1 ppm in the test with Spodoptera litura and in the test on Plutella xylostella was no less than 70% in each case.

On to `CN(C(=O)c1ccc(C#N)cc1)c1cccc(C(=O)Nc2c(Cl)cc(C(F)(C(F)(F)F)C(F)(F)F)cc2C(F)(F)F)c1` [7-132], for which the pest or weed control at 1 ppm in the test on Spodoptera litura and in the test on Plutella xylostella was no less than 70% throughout.

Regarding `CN(C(=O)c1cccc(NC(=O)c2cccc(C#N)c2)c1)c1c(C(F)(F)F)cc(C(F)(C(F)(F)F)C(F)(F)F)cc1C(F)(F)F` [8-824], the pest or weed control at 1 ppm in the test with Spodoptera litura and with Plutella xylostella was no less than 70% in each case.

On to `CN(C(=O)c1ccc(F)cc1)c1cccc(C(=O)Nc2c(I)cc(C(F)(C(F)(F)F)C(F)(F)C(F)(F)F)cc2I)c1` (centres unmarked) [7-5905], for which the pest or weed control at 1 ppm with Spodoptera litura and in the test on Plutella xylostella was no less than 70% each time.

With `CN(C(=O)c1ccc(C#N)cc1F)c1cccc(C(=O)Nc2c(Br)cc(C(F)(C(F)(F)F)C(F)(F)F)cc2C(F)(F)F)c1` [7-300], the pest or weed control at 1 ppm with Spodoptera litura and in the test on Plutella xylostella was no less than 70% each time.

Regarding `N#Cc1ccc(C(=O)Nc2cccc(C(=O)Nc3c(Br)cc(C(F)(C(F)(F)F)C(F)(F)F)cc3C(F)(F)F)c2)cc1` [6-289], the pest or weed control at 1 ppm with Spodoptera litura and with Plutella xylostella was no less than 70% each time.

For the compound `O=C(Nc1cccc(C(=O)Nc2c(I)cc(C(F)(C(F)(F)F)C(F)(F)F)cc2C(F)(F)F)c1F)c1ccc(F)cc1Cl` [6-1755], the pest or weed control at 1 ppm in the test on Spodoptera litura and in the test with Plutella xylostella was no less than 70% in each case.

For the compound `O=C(Nc1c(I)cc(C(F)(C(F)(F)F)C(F)(F)F)cc1C(F)(F)F)c1cccc(NC(=O)c2ccc([N+](=O)[O-])cc2Cl)c1` [6-454], the pest or weed control at 10 ppm in the test on Spodoptera litura and with Plutella xylostella was no less than 70% throughout.

With `N#Cc1cccc(C(=O)Nc2cccc(C(=O)Nc3c(I)cc(C(F)(C(F)(F)F)C(F)(F)C(F)(F)F)cc3I)c2)c1` (centres unmarked) [6-78], the pest or weed control at 1 ppm in the test on Spodoptera litura and in the test with Plutella xylostella was no less than 70% throughout.

For the compound `CN(C(=O)c1cc(C#N)cc(C#N)c1)c1cccc(C(=O)Nc2c(Br)cc(C(F)(C(F)(F)F)C(F)(F)F)cc2C(F)(F)F)c1` [7-299], the pest or weed control at 1 ppm with Spodoptera litura and with Plutella xylostella was no less than 70% each time.

For `O=C(Nc1c(C(F)(F)F)cc(C(F)(C(F)(F)F)C(F)(F)F)cc1C(F)(F)F)c1cccc(NC(=O)c2cccnc2Cl)c1` [6-840], the pest or weed control at 1 ppm in the test with Spodoptera litura and in the test with Plutella xylostella was no less than 70% each time.

On to `CN(C(=O)c1cccnc1Cl)c1cccc(C(=O)Nc2c(Cl)cc(C(F)(C(F)(F)F)C(F)(F)F)cc2C(F)(F)F)c1` [7-147], for which the pest or weed control at 1 ppm in the test with Spodoptera litura and in the test with Plutella xylostella was no less than 70% throughout.

As to `CN(C(=O)c1cccnc1Cl)c1nc(C(=O)Nc2c(Br)cc(C(F)(C(F)(F)F)C(F)(F)F)cc2C(F)(F)F)cs1` [27-663], the pest or weed control at 1 ppm in the test on Spodoptera litura was no less than 70%. The pest or weed control at 10 ppm in the test with Plutella xylostella is no less than 70%.

As to `CN(C(=O)c1ccccc1)c1cccc(C(=O)Nc2c(Br)cc(C(F)(F)C(F)(F)F)cc2C(F)(F)F)c1` [7-5911], the pest or weed control at 10 ppm in the test with Spodoptera litura and with Plutella xylostella was no less than 70% in each case.

As for `CN(C(=O)c1ccccc1)c1cccc(C(=O)Nc2c(C(F)(F)F)cc(C(F)(C(F)(F)F)C(F)(F)F)cc2C(F)(F)F)c1` [7-804], the pest or weed control at 1 ppm in the test with Spodoptera litura is no less than 70%. For the same compound, the pest or weed control at 10 ppm with Plutella xylostella was no less than 70%.

Consider `CN(C(=O)c1cccc(C#N)c1)c1cccc(C(=O)Nc2c(I)cc(C(F)(C(F)(F)F)C(F)(F)C(F)(F)F)cc2I)c1` (centres unmarked) [7-78], for which the pest or weed control at 1 ppm in the test with Spodoptera litura and in the test on Plutella xylostella was no less than 70% throughout.

In the case of `CN(C(=O)c1ccc(C#N)cc1)c1cccc(C(=O)Nc2c(Cl)cc(C(F)(C(F)(F)F)C(F)(F)F)cc2Cl)c1F` [7-969], the pest or weed control at 1 ppm in the test with Spodoptera litura and with Plutella xylostella was no less than 70% each time.
